# Literature values, collected in patent EP3124016B1, “ANTIPSORIATIC EMULSION COMPOSITION COMPRISING CEFAZOLIN” (Warszawski Uniwersytet Medyczny, priority 2015, dated 2017).
# Structures can show the parent of a compound that is named as a salt.
# Settings: 1% aqueous solution
compound,measurement,setting,value
Cc1nnc(SCC2=C(C(=O)O)N3C(=O)[C@@H](NC(=O)Cn4cnnn4)[C@H]3SC2)s1 [cefazolin sodium salt],time for which eye drops were stable,stored at 4°C,42 days
same,time for which stability lasted,"eye drops, storage in room temperature",only for a few days
